Experimental data reported in patent US7419950B2, “Methods of inhibiting ectopic calcification” (University of Washington, priority 1998, dated 2008).

Columns and labels:
[1] = test system: human vascular smooth muscle cells (HSMC); assay: Calcium deposition by human vascular smooth muscle cells in high-phosphate calcification medium; format: cell-based; details: for calcium deposition into HSMC matrix (in words): high-phosphate calcification medium
Method: (§1) Calcification was assessed by a modification of the method described by Jono et al., Arterioscler. Thromb. Vasc. Biol. 17:1135-1142 (1997) which is incorporated herein by reference. Briefly, the cultures were decalcified with 0.6 N HCl for 24 hours. The calcium content of the HCl supernatant was determined calorimetrically by the o-cresolphthalein complexone method (Calcium Kit, Sigma). After decalcification, the cultures were washed with phosphate-buffered saline (PBS) and solubilized with 0.1 N NaOH/0.1% sodium dodecyl sulfate(SDS). Total protein content was measured with a Bio-Rad Protein Assay Kit (Bio-Rad). The calcium content of the cell layer was normalized to protein content. Phosphorus and calcium concentrations in the culture medium were measured by the phosphomolybdate complex method (Phosphorus Kit, Sigma) and the o-cresolphthalein complexone method (Calcium Kit, Sigma), respectively. Values were expressed as the mean +/− SEM, n=3.
HSMC were routinely subcultured in growth medium. At confluence, cells were switched to calcification medium (DMEM containing 15% FBS and 1 mM sodium pyruvate in the presence of 2 mM inorganic phosphate supplemented with 100 U/ml penicillin and 100 μg/ml of streptomycin) for up to 14 days. The medium was replaced with fresh medium every 2 days. For time-course experiments, the first day of culture in calcification medium was defined as day 0. Calcium deposition was quantified and assessed histochemically and cytochemically as described above in Example I.
Osteopontin proteins and functional fragments were assayed for their ability to inhibit ectopic calcification using the HSMC calcification system described in Example III. The osteopontin proteins include full-length human recombinant osteopontin as well as recombinant N-terminal and C-terminal human osteopontin fragments similar to those that would be formed following thrombin cleavage of the native protein, as described by Smith et al., supra (1996). Two N-terminal fragments were used, 10N and 30N, which refer to two differ splice variants of osteopontin. The 30N splice variant contains an additional 14 amino acids, […] (SEQ ID NO: 7), which correspond to exon 5 (amino acids 59-72). The ION fragment contains amino acids 17-58 and 73-160 of native osteopontin, whereas the 30N fragment contains amino acids 17-169. The 10C fragment contains the C-terminal domain of osteopontin, amino acids 170-317.
Recombinant osteopontin and its functional fragments were assayed for their ability to inhibit ectopic calcification of human smooth muscle cells (HSMC) either prior to or following phosphorylation by casein kinase II. The amount of phosphate incorporated into osteopontin (OPN) and its fragments achieved by casein kinase II phosphorylation is shown in FIG. 5b.

[2] = test system: bovine aortic smooth muscle cells (BASMC); assay: Calcium deposition by cultured bovine aortic smooth muscle cells in calcification medium; format: cell-based; details: for inhibition of calcium deposition (in words): equimolar concentrations as were effective for osteopontin
Method: In order to examine calcification by cultured BASMC smooth muscle cells, calcification was induced by the method described by Shioi et al., Arterioscler Thromb Vasc Biol., 15:2003-2009 (1995), which is incorporated herein by reference. Briefly, BASMC were cultured in growth medium for 4 days, and then switched to calcification medium (DMEM (high glucose, 4.5 g/L) containing 15% FBS and 10 mM sodium pyruvate in the presence of 10 mM of β-glycerophosphate (unless otherwise stated), 10^-7 M insulin, and 50 μg/ml of ascorbic acid, supplemented with 100 U/ml of penicillin and 100 μg/ml of streptomycin) for 10 days. The medium was replaced with fresh medium twice a week. In the time course experiments, the beginning day of culture in calcification medium was defined as day 0.
as §1
To examine the effect of osteopontin on BASMC-mediated calcification in vitro, soluble osteopontin or vehicle alone (0.1 mM sodium citrate) was added to the calcifying BASMC cultures. […] In contrast, vehicle alone had no effect (FIG. 2a).
To exclude the possibility that contaminants in the osteopontin preparation were responsible for the observed inhibitory effect, immunodepletion experiments were performed. Medium containing 10 μg/ml osteopontin was mixed with […] anti-osteopontin (OP-199) or normal goat IgG, prepared by the method described by Liaw et al., supra (1994) and incubated for 1 hr at room temperature. 250 mg protein-A-sepharose was added and incubated for 1 hr at room temperature. The antibody-protein A sepharose complexes were removed by centrifugation, and the remaining supernatant diluted twenty-fold for use in the calcification studies. Unpaired Student's t test was employed to compare groups and a probability value (p) value less than 0.05 was considered significant.

BASMC = assay: Phosphorus concentration in BASMC culture medium; format: cell-based, bovine; details: BASMC calcification medium
Method: as §1

alkaline phosphatase = molecular target: T1, alkaline phosphatase (Bos taurus, UniProt P09487); assay: Cellular alkaline phosphatase activity of BASMC cultures; format: cell-based, bovine; details: cells in calcification medium
T1 construct: cellular proteins were solubilized with 1% Triton X-100 in 0.9% NaCl and centrifuged; endogenous in cells; host or cells: BASMC (bovine aortic smooth muscle cells), detergent lysate supernatant
T1 sequence (P09487 18-499): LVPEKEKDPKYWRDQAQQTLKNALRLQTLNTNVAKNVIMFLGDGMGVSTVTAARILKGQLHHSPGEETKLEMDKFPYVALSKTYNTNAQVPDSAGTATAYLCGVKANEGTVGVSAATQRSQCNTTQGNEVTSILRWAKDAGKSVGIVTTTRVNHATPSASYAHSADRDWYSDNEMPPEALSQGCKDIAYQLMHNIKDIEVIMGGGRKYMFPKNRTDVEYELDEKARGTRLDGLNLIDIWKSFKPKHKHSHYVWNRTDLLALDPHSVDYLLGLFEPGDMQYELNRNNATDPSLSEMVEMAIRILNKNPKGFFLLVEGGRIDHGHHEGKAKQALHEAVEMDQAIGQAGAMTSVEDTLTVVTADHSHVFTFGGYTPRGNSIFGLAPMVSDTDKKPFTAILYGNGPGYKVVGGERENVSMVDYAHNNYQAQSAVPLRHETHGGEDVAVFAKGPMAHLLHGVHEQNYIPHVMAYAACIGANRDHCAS
Method: For cellular alkaline phosphatase activity measurements, cells were cultured in calcification medium in the presence of various concentrations of osteopontin. Cells were washed three times with PBS and cellular proteins were solubilized with 1% Triton X-100 in 0.9% NaCl and centrifuged. Supernatants were assayed for alkaline phosphatase activity by the method described by Bessey et al., J. Biol. Chem. 164:321-329 (1946), which is incorporated herein by reference. One unit was defined as the activity producing 1 nmol of p-nitrophenol within 1 minute. Protein concentrations were determined with a Bio-Rad protein assay kit (Bio-Rad). The data were normalized to the protein content of the cell layer.

`O=P(O)(O)O` [inorganic phosphate] was tested, and the calcium deposition ([1]; 2 mM inorganic phosphate, day 9, mean +/-SEM) was 210.3+/−2.4 μg/mg protein.
With `c1ccc([C@H]2CN3CCSC3=N2)cc1` [levamisole, reference compound] the IC50 ([2]; Bos taurus, BASMC cultures in calcification medium, read-out: half-maximal inhibition of calcium deposition) was 50 µM, the “calcium deposition in BASMC cultures (in words)” value ([2]; levamisole versus vehicle) was “dose-dependently inhibited” and the “phosphorus concentration of the culture medium (in words)” value (BASMC) was “reduced”. For the same compound, the “alkaline phosphatase activity of BASMC cultures (in words)” value (alkaline phosphatase) was “dose-dependently inhibited”.
Compound `O=P(O)(O)OC(CO)CO` [β-glycerophosphate] has an EC50 ([2]; BASMC, initial concentration of β-glycerophosphate in medium, read-out: concentration giving half-maximal calcium deposition) of roughly 4000 µM.
“OPN: full-length human recombinant osteopontin prepared as a His-tagged protein; tested with or without casein kinase II phosphorylation” was tested, and the “inhibition of ectopic calcification, dose relation (in words)” value ([1]; 0.1 μg/ml to 5.0 μg/ml) was “dose-dependent”, the “time to significantly reduced calcium deposition” value ([1]; after addition to HSMC) was no more than 60 min and the inhibition of calcification ([1]; by 90 minutes following addition) was “approximately 50%”. For the same compound, the “calcium deposition into HSMC matrix (in words)” value ([1]; non-phosphorylated forms) was “do not significantly affect”, the “HSMC calcification (in words)” value ([1]; phosphorylated by casein kinase II, 15 nM) was “able to inhibit HSMC calcification” and the “HSMC calcification (in words)” value ([1]; phosphorylated protein dephosphorylated with alkaline phosphatase (ALP)) was “reverses this inhibitory ability”. The “calcium deposition into HSMC matrix (in words)” value ([1]; protein phosphorylated by casein kinase II) was “reduced to basal levels”.
In the case of “fibronectin: bovine fibronectin (TELIOS), RGD-containing extracellular matrix molecule [reference compound]”, the “inhibition of calcium deposition (in words)” value [2] is reported as “unable to inhibit calcium deposition”.
For “osteopontin: Rat osteopontin purified from the conditioned medium of rat neonatal smooth muscle cell cultures, >95% pure”, the “inhibition of BASMC culture calcification” value ([2]; 0.5 ug/ml added on day 7 after start of mineralization, read at day 10) was 50%, the “fold inhibition of calcification versus vehicle” value ([2]; 0.5 ug/ml in medium) was 18 fold and the inhibition of calcification ([2]; 0.5 μg/ml, 10 days) was “approximately 90%”. For the same compound, the “calcium deposition in cell layer” value ([2]; 0.5 ug/ml, no immunodepletion) was 0.33 ± 0.06 µmol/mg, the “inhibition of calcification (in words)” value ([2]; 5 μg/ml, 10 days) was “almost completely inhibited” and the “calcification of BASMC (in words)” value ([2]; 0.05, 0.5 and 5 μg/ml, assessed at 10 days) was “dose-dependently inhibited”. The “dependence of inhibitory effect on mineralization on calcium (in words)” value ([2]; medium supplemented with increasing calcium, 10 days) was “calcium dependent”, the “calcium deposition in cell layer” value ([2]; osteopontin solution immunodepleted with anti-osteopontin antibody (OP-199)) was 2.60 ± 0.43 µmol/mg and the “calcium deposition in cell layer” value ([2]; osteopontin solution treated with normal goat IgG) was 0.49 ± 0.10 µmol/mg. The “phosphorus concentration of the culture medium (in words)” value (BASMC) was “did not reduce” and the “alkaline phosphatase activity of BASMC cultures (in words)” value (alkaline phosphatase) was “did not affect”.
For vitronectin [reference compound], the “inhibition of calcium deposition (in words)” value [2] was “unable to inhibit calcium deposition”.
